In experiment [1] the target is T1, human recombinant serotonin (5-Hydroxytryptamine) 5-HT2C receptor (Homo sapiens, UniProt P28335).
T1 construct: expressed in transfected cells; host or cells: CHO-K1 cells
T1 sequence (P28335 33-458): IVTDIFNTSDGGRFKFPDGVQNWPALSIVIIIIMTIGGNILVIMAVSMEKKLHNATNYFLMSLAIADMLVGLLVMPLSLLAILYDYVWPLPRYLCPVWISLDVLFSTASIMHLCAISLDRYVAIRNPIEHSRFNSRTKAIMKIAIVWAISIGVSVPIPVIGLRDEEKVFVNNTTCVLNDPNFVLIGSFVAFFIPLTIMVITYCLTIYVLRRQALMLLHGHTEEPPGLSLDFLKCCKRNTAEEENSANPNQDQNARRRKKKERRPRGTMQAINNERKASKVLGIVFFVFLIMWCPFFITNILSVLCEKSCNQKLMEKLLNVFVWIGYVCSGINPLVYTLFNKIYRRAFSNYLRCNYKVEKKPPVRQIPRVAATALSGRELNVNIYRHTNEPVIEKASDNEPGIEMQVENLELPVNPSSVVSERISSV
In words: Serotonin 5-HT2C radioligand binding ([3H]Mesulergine). On the procedure:
Compounds of the invention were incubated with 1 nM [^3H]Mesulergine for 60 minutes at 25° C. Non-specific binding was estimated in the presence of 1 μM Mianserin. Receptor proteins were filtered and washed, the filters were then counted to determine [^3H]Mesulergine specifically bound. […] Biochemical assay results are presented as the percent inhibition of specific binding in Table 5.

Experiment [2] addresses T2, human recombinant dopamine D2L receptor (Homo sapiens, UniProt P14416).
T2 construct: expressed in transfected cells; host or cells: CHO cells
Kind of experiment: Dopamine D2L radioligand binding ([3H]Spiperone). The essentials: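 CHO-expressed receptor in 50 mM Tris-HCl pH 7.4 with ascorbic acid, 0.001% BSA, 150 mM NaCl; 0.16 nM [3H]spiperone, 120 min at 25 °C; nonspecific binding with haloperidol.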

Experiment [3] deals with T3, human recombinant serotonin (5-Hydroxytryptamine) 5-HT6 receptor (Homo sapiens, UniProt P50406).
T3 construct: expressed in transfected cells; host or cells: human HeLa cells
In words: Serotonin 5-HT6 radioligand binding ([3H]LSD). The procedure, abridged:
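Human 5-HT6 receptor expressed in HeLa cells, in Tris-HCl pH 7.4 with 150 mM NaCl, ascorbic acid and BSA. Compounds at 1 μM or lower (1% DMSO) incubated 120 min at 37° C with 1.5 nM [3H]LSD. Non-specific binding defined with serotonin; filter counting gives % inhibition of specific binding.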

Experiment [4] deals with T4, human recombinant adrenergic α2A receptor (Homo sapiens, UniProt P08913).
T4 construct: expressed in transfected cells; host or cells: insect Sf9 cells
T4 sequence (P08913 1-465): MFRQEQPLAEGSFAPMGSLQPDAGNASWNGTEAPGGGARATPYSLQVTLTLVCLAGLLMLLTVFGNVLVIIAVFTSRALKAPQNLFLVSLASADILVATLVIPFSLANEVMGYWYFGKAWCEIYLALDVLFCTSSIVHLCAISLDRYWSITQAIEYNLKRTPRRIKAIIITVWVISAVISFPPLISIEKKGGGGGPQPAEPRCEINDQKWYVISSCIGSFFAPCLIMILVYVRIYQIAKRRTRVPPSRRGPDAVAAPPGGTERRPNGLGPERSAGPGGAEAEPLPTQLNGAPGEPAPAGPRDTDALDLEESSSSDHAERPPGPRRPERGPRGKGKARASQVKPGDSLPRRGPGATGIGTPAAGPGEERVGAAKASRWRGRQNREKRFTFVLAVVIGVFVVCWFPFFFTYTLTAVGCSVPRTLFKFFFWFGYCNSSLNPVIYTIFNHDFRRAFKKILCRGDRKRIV
Kind of experiment: Adrenergic α2A radioligand binding ([3H]MK-912). The procedure, abridged:
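Human α2A receptor expressed in Sf9 cells, in Tris-HCl pH 7.4 with 12.5 mM MgCl2 and 2 mM EDTA; 1 nM [3H]MK-912, 60 min at 25 °C. Non-specific binding defined with 10 μM WB-4101; filter counting.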

[5] abbreviates: 1 h, read-out: Percent Inhibition of ligand binding Serotonin (1 μM ligand concentration) 5-HT2C.
Where [6] appears, read: 2 h, 1 μM ligand conc., read-out: Percent Inhibition of ligand binding Dopamine (1 μM ligand conc.) D2L.
The mark [7] stands for this setting: 2 h, read-out: Percent Inhibition of ligand binding Serotonin (1 μM ligand concentration) 5-HT6.
[8] abbreviates: 1 h, read-out: Percent Inhibition of ligand binding Adrenergic (1 μM ligand conc.) α2A.

Read-outs that look alike come from different tables or passages of the source.

Ten compounds from patent US9260429B2, “Pyrido[3,4-B]indoles and methods of use” (Medivation Technologies, Inc., priority 2008, dated 2016) can be followed below.

T3 sequence (P50406 whole entry): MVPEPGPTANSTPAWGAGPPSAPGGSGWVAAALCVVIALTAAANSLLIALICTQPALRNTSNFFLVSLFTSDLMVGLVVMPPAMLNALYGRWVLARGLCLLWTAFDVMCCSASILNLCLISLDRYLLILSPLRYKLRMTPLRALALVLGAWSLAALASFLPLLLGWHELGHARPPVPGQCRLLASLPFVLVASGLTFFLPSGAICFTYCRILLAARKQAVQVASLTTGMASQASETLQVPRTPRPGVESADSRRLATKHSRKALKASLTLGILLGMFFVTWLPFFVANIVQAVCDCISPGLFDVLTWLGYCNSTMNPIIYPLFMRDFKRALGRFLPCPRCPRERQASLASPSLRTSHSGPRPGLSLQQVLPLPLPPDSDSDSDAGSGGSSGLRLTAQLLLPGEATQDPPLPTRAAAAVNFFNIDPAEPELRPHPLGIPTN
T2 sequence (P14416 whole entry): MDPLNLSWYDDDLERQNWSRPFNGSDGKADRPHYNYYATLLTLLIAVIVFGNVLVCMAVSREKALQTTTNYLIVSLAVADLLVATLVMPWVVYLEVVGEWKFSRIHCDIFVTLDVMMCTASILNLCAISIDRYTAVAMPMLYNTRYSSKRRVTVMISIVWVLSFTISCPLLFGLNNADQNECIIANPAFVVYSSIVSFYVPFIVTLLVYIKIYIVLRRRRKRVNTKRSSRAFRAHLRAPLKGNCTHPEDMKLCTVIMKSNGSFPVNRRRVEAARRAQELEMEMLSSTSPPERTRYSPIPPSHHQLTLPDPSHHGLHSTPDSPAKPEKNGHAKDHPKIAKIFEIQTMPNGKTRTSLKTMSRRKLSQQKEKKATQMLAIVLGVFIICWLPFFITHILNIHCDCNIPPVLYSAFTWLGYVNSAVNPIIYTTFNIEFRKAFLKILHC

`CCC1c2c(c3cc(C)ccc3n2C(=O)Cc2ccc(F)cc2)CCN1C` (stereo not drawn) [Compound 159]: the inhibition at 1 µM in experiment [1] (setting [5]) is 103%; in experiment [2] (setting [6]), -9%; in experiment [3] (setting [7]), 46%; in experiment [4] (setting [8]) it was 71%.

As to `CCC1c2c(c3cc(C)ccc3n2/C=C(\C)c2ccc(Cl)cc2)CCN1C` (stereo not drawn) [Compound 160, 9-(2-(4-chlorophenyl)prop-1-enyl)-1-ethyl-2,6-dimethyl-2,3,4,9-tetrahydro-1H-pyrido[3,4-b]indole], the inhibition at 1 µM is 103% in experiment [1] (setting [5]), -1% in experiment [2] (setting [6]), 24% in experiment [3] (setting [7]) and 51% in experiment [4] (setting [8]).

Consider `C/C(=C\n1c2c(c3cc(C)ccc31)CCN(C)C2C)c1ccc(Cl)cc1` (stereo not drawn) [Compound 161, 9-(2-(4-chlorophenyl)prop-1-enyl)-1,2,6-trimethyl-2,3,4,9-tetrahydro-1H-pyrido[3,4-b]indole], for which the inhibition at 1 µM in experiment [1] (setting [5]) turned out to be 99%; in experiment [2] (setting [6]) it was 0%; in experiment [3] (setting [7]), 75%; in experiment [4] (setting [8]), 52%.

Consider `CCC1c2c(c3cc(C)ccc3n2C#Cc2ccc(Cl)cc2)CCN1C` (stereo not drawn) [Compound 162, 9-((4-chlorophenyl)ethynyl)-1-ethyl-2,6-dimethyl-2,3,4,9-tetrahydro-1H-pyrido[3,4-b]indole], for which the inhibition at 1 µM in experiment [1] (setting [5]) worked out at 101%; in experiment [2] (setting [6]) it was 4%; in experiment [3] (setting [7]), 12%; in experiment [4] (setting [8]) it was 76%.

Consider `Cc1ccc2c(c1)c1c(n2C(=O)Cc2ccc(Cl)cc2)C(c2ccccc2)N(C)CC1` (stereo not drawn) [Compound 163], for which the inhibition at 1 µM is 96% in experiment [1] (setting [5]), -12% in experiment [2] (setting [6]), 89% in experiment [3] (setting [7]) and 96% in experiment [4] (setting [8]).

Take `C/C(=C\n1c2c(c3cc(C)ccc31)CCN(C)C2c1ccccc1)c1ccc(Cl)cc1` (stereo not drawn) [Compound 164, 9-(2-(4-chlorophenyl)prop-1-enyl)-2,6-dimethyl-1-phenyl-2,3,4,9-tetrahydro-1H-pyrido[3,4-b]indole]: the inhibition at 1 µM in experiment [1] (setting [5]) is 98%; in experiment [2] (setting [6]), -2%; in experiment [3] (setting [7]), 16%; in experiment [4] (setting [8]), 58%.

Turning to `C/C(=C/n1c2c(c3cc(C)ccc31)CCN(C)C2C)c1ccccc1F` (stereo not drawn) [Compound 165], the inhibition at 1 µM was 93% in experiment [1] (setting [5]), 6% in experiment [2] (setting [6]), 46% in experiment [3] (setting [7]) and 86% in experiment [4] (setting [8]).

As to `C/C(=C\n1c2c(c3cc(C)ccc31)CCN(C)C2C)c1ccccc1F` (stereo not drawn) [Compound 166], the inhibition at 1 µM was 96% in experiment [1] (setting [5]); 96% in experiment [1] (compound concentration 1 μM, read-out: Percentage inhibition of ligand binding to 5-HT2C receptor); 21% in experiment [2] (setting [6]); 21% in experiment [2] (compound concentration 1 μM, read-out: Percentage inhibition of ligand binding to D2L receptor); 95% in experiment [3] (setting [7]); 95% in experiment [3] (compound concentration 1 μM, read-out: Percentage inhibition of ligand binding to 5-HT6 receptor). Moreover, the inhibition at 1 µM in experiment [4] (setting [8]) was determined as 95%; in experiment [4] (compound concentration 1 μM, read-out: Percentage inhibition of ligand binding to Adrenergic α2A receptor) it was 95%. The inhibition at 0.01 µM in experiment [1] (compound concentration 10 nM, read-out: Percentage inhibition of ligand binding to 5-HT2C receptor) amounted to 33%; in experiment [3] (compound concentration 10 nM, read-out: Percentage inhibition of ligand binding to 5-HT6 receptor) it was 13%. Further, the inhibition at 0.03 µM in experiment [1] (compound concentration 0.03 μM, read-out: Percentage inhibition of ligand binding to 5-HT2C receptor) was 62%; in experiment [3] (compound concentration 0.03 μM, read-out: Percentage inhibition of ligand binding to 5-HT6 receptor), 16%. The inhibition at 0.1 µM in experiment [1] (compound concentration 0.1 μM, read-out: Percentage inhibition of ligand binding to 5-HT2C receptor) came out at 87%; in experiment [3] (compound concentration 0.1 μM, read-out: Percentage inhibition of ligand binding to 5-HT6 receptor), 38%. In addition, the inhibition at 0.3 µM in experiment [1] (compound concentration 0.3 μM, read-out: Percentage inhibition of ligand binding to 5-HT2C receptor) is 93%; in experiment [3] (compound concentration 0.3 μM, read-out: Percentage inhibition of ligand binding to 5-HT6 receptor) it was 55%. Besides, the inhibition at 3 µM in experiment [2] (compound concentration 3 μM, read-out: Percentage inhibition of ligand binding to D2L receptor) amounted to 12%. Besides, the inhibition at 10 µM in experiment [2] (compound concentration 10 μM, read-out: Percentage inhibition of ligand binding to D2L receptor) worked out at 50%.

Take `C/C(=C/n1c2c(c3cc(Cl)ccc31)CCN(C)C2C)c1ccccc1F` (stereo not drawn) [Compound 167]: the inhibition at 1 µM amounted to 95% in experiment [1] (setting [5]), 22% in experiment [2] (setting [6]), 55% in experiment [3] (setting [7]) and 92% in experiment [4] (setting [8]).

In the case of `C/C(=C\n1c2c(c3cc(Cl)ccc31)CCN(C)C2C)c1ccccc1F` (stereo not drawn) [Compound 168], the inhibition at 1 µM in experiment [1] (setting [5]) came to 96%; in experiment [2] (setting [6]), 9%; in experiment [3] (setting [7]), 71%; in experiment [4] (setting [8]) it was 74%.
